The molecules below were run against PAR4 (Homo sapiens (Human), UniProt Q96RI0) (assay: FLIPR assay in PAR4-expressing HEK293 cells (PAR4 antagonist activity, calcium mobilization)). Conditions: H-Ala-Phe(4-F)-Pro-Gly-Trp-Leu-Val-Lys-Asn-Gly-NH2-induced calcium mobilization.
Format: cell-based
Description: The FLIPR assay is an exemplary in vitro assay for measuring the activity of the PAR4 antagonists of the present invention. In this assay, intracellular calcium mobilization is induced in PAR4 expressing cells by a PAR4 agonist and calcium mobilization is monitored. See, e.g., Example A.
HEK293 cells stably expressing PAR4 were generated by a standard method of transfection of human […] cDNA expression vector or by RAGE technology from Athersys Inc. (Cleveland, Ohio) and selected based on PAR4 protein expression of mRNA expression. […] These cells express endogenous PAR1 and can elicit calcium signal upon stimulation with PAR1 agonist peptide.
Counter screens for agonist activity and PAR1 antagonist activity were also performed. Briefly, HEK293 EBNA PAR4 clone 20664.1J cells were plated 24 hrs. prior to experiment in 384 well, Poly-D-Lysine coated, black, clear bottom plates (Greiner Bio-One, Monroe, N.C.). Cells were plated at 20,000 cells/well in […] growth medium and incubated at 37° C. with 5% CO2 overnight. At time of assay, media was replaced with 40 μl 1× Hank's Buffered Saline Solution (HBSS) (with 10 mM HEPES) and 20 μl test compound also diluted in 1×HBSS buffer was added at various concentrations and 0.67% DMSO final concentration on the FDSS for agonist measurement. The cells were then incubated for 30 minutes at room temperature followed by addition of 20 μl of agonist peptide for antagonist measurement on the FDSS.
As indicated above, the FLIPR assay, an in vitro assay, measures the PAR4 antagonist activity of compounds tested as described in Example A. The PRP assay, an in vitro assay, measures the PAR4 antagonist assay of the compounds tested in the presence of plasma proteins and thrombin agonist as described in Example C.

Sequence of PAR4 (Q96RI0 18-385): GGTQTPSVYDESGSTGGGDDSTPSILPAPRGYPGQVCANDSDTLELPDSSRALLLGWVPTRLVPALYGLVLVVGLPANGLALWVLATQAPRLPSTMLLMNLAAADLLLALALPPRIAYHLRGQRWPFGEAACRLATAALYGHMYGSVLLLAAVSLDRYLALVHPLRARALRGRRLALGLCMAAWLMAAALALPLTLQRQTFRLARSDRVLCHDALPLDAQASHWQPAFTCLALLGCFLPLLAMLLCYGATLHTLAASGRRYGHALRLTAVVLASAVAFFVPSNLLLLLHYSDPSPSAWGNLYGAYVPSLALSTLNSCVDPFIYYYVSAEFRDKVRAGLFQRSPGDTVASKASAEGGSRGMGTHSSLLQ

Structure (SMILES) | EC50
COc1cc(OCc2csc(N3CCC(C)CC3)n2)c2cc(-c3cn4nc(C)ccc4n3)oc2c1 [Example 259] | 0.58 nM
COc1nn2cc(-c3cc4c(OCc5csc(C6(F)CCOCC6)n5)cc(Cl)cc4o3)nc2s1 [Example 190] | 0.47 nM
COc1cc(OCc2csc(C3(NC(=O)CNC(=O)OC(C)(C)C)CCOCC3)n2)c2cc(-c3cn4nc(OC)sc4n3)oc2c1 [Example 173, tert-Butyl (2-((4-(4-(((6-methoxy-2-(2-methoxyimidazo-[2,1-b][1,3,4]thiadiazol-6-yl)benzofuran-4-yl)oxy)methyl)-thiazol-2-yl)tetrahydro-2H-pyran-4-yl)amino)-2-oxoethyl)carbamate] | 0.67 nM
COc1cc(OCc2csc(-c3cccc(C(F)(F)F)c3)n2)c2cc(-c3cn4nc(OC)sc4n3)oc2c1 [Example 17] | 1.1 nM
COc1cc(OCc2csc(C3(c4ccccc4F)CCOC3)n2)c2cc(-c3cn4nc(OC)sc4n3)oc2c1 (stereo not shown) [Example 166, 6-(4-((2-(3-(2-Fluorophenyl)tetrahydrofuran-3-yl)thiazol-4-yl)methoxy)-6-methoxybenzofuran-2-yl)-2-methoxyimidazo[2,1-b][1,3,4]thiadiazole] | 0.97 nM
COc1cc(OCc2csc(-c3ccc(C(=O)N4CCC(C)CC4)cc3)n2)c2cc(-c3cn4nc(OC)sc4n3)oc2c1 [Example 302] | 0.44 nM
COc1cc(OCc2csc(-c3cccc(OC(C)=O)c3)n2)c2cc(-c3cn4nc(OC)sc4n3)oc2c1 [Example 62] | 0.48 nM

Second part, the molecule after the results:

EC50 | Structure (SMILES)
0.96 nM | COc1cc(OCc2csc(C3(O)CCN(C(=O)OC(C)(C)C)CC3)n2)c2cc(-c3cn4nc(OC)sc4n3)oc2c1 [Example 129, tert-Butyl 4-hydroxy-4-(4-(((6-methoxy-2-(2-methoxyimidazo[2,1-b][1,3,4]thiadiazol-6-yl)benzofuran-4-yl)oxy)methyl)thiazol-2-yl)piperidine-1-carboxylate]
2.5 nM | COc1cc(OCc2nc(-c3ccc(C(=O)N(C)C)cc3)sc2C(C)C)c2cc(-c3cn4nc(OC)sc4n3)oc2c1 [Example 42, 4-(5-Isopropyl-4-(((6-methoxy-2-(2-methoxyimidazo[2,1-b][1,3,4]thiadiazol-6-yl)benzofuran-4-yl)oxy)methyl)thiazol-2-yl)-N,N-dimethylbenzamide]
0.41 nM | COc1nn2cc(-c3cc4c(OCc5csc(-c6ccc(C(=O)N(C)C)cc6)n5)cc(F)cc4o3)nc2s1 [Example 185, 4-(4-(((6-Fluoro-2-(2-methoxyimidazo[2,1-b][1,3,4]thiadiazol-6-yl)benzofuran-4-yl)oxy)methyl)thiazol-2-yl)-N,N-dimethylbenzamide]
0.48 nM | CCN(C(=O)c1ccc(-c2nc(COc3cc(OC)cc4oc(-c5cn6nc(OC)sc6n5)cc34)cs2)cc1)C(C)C [Example 287]
0.72 nM | COc1cc(OCc2csc(C3(F)CCOCC3)n2)c2cc(-c3cn4nc(OC)sc4n3)oc2c1 [Example 119, 6-(4-((2-(4-Fluorotetrahydro-2H-pyran-4-yl)thiazol-4-yl)methoxy)-6-methoxybenzofuran-2-yl)-2-methoxyimidazo[2,1-b][1,3,4]thiadiazole]
0.92 nM | COc1cc(OCc2csc(C3(O)CCC(C(=O)O)CC3)n2)c2cc(-c3cn4nc(OC)sc4n3)oc2c1 (stereo not shown) [Example 150, 4-Hydroxy-4-(4-(((6-methoxy-2-(2-methoxyimidazo[2,1-b][1,3,4]thiadiazol-6-yl)benzofuran-4-yl)oxy)methyl)thiazol-2-yl)cyclohexanecarboxylic acid]
0.76 nM | COc1cc(OCc2csc(-c3ccccc3)n2)c2cc(-c3cn4nc(C)ccc4n3)oc2c1 [Example 203, 4-(((6-Methoxy-2-(6-methylimidazo[1,2-b]pyridazin-2-yl)benzofuran-4-yl)oxy)methyl)-2-phenylthiazole]
1.1 nM | COc1cc(OCc2csc(N3CCN(c4cccc(Cl)n4)CC3)n2)c2cc(-c3cn4nc(C)ccc4n3)oc2c1 [Example 284]
0.98 nM | COc1cc(OCc2csc(-c3ccc(F)cc3)n2)c2cc(-c3cn4nc(OC)sc4n3)oc2c1 [Example 15]
